The numbers were not newly measured in EP0513922B1, “Coating for foods and agricultural products to prevent the growth of moulds” (GIST-BROCADES N.V., priority 1991, dated 1992), which cites them from elsewhere.

The conditions of data set [1]: in aqueous systems, depending of the presence of other substances.
Another data set concerns fungus growth. To be noted: to be effective against fungus growth.

For the compound `C[C@@H]1C/C=C/C=C/C=C/C=C/[C@H](O[C@@H]2O[C@H](C)[C@@H](O)[C@H](N)[C@@H]2O)C[C@@H]2O[C@](O)(C[C@@H](O)C[C@H]3O[C@@H]3/C=C/C(=O)O1)C[C@H](O)[C@H]2C(=O)O` [natamycin], the solubility of natamycin in data set [1] is given as 30 - 50 ppm. Also, in the data set on fungus growth, the minimal inhibitory concentration entry was “less than 10 ppm”.
